Several values for one entry are separate records, joined by “and”; a condition that tells them apart may be missing. Equal values may be shown once. Where a name gives a salt, the structure may show the parent alone. Read-outs that look alike come from different tables or passages of the source.
How the values were obtained:
Mouse in vivo PK study = conditions: male CDI mice; for F: PO 10 mg/kg vs IV 1 mg/kg; for clearance / half-life / AUC / Cmax: mouse, plasma; for clearance / half-life: IV 1 mg/kg; for half-life: read-out: T1/2 (IV) (converted); for AUC / Cmax: PO 10 mg/kg
Experimental: To determine the drug concentration in plasma of NJB-342, NJB-348 and NJB-463 following intravenous and oral administration in male CDI Mice, to get the pharmacokinetic profile and PK parameters
Test animals: healthy male CDI mice (body weight 20-30 g, 18 mice, free access to food and water), provided by Sibeifu laboratory.
Dose Level and dose route: dosed the animals via intravenous injection from tail vein for IV group (1 mg/kg, 5 mL/kg, 10% DMSO/40% PEG400/50% water), dosed the animals via oral gavage for PO group (10 mg/kg, 10 mL/kg, (10% DMSO/40% PEG400/50% water), respectively.
Samples collection: the healthy animals were used, weighed the bodyweight and marked at tail and cage card prior to dosing. Blood samples (0.03 mL per time point) were collected from dorsal metatarsal vein at 0.083, 0.25, 0.5, 1, 2, 4, 8, 24 h post dose for IV group and at 0.25, 0.5, 1, 2, 4, 8, 24 h post dose for PO group, the terminal time point was collected from heart (˜0.3 mL). The blood samples were put into the tube with heparin-Na coated and then put on the cold box, centrifuged at 4° C. 4000 g, 5 minutes immediately after collecting all samples per time point to get plasma. The plasma samples were stored in a freezer at −75±15° C. prior to analysis.

IGF-1R = molecular target: T1, IGF-1R (Homo sapiens, UniProt P08069); experiment: IGF-1R inhibition assay (Caliper EZ Reader); type: biochemical; conditions: enzyme assay
T1 construct: purchased CARNA BIOSCIENCE 08-141
Outline: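 IGF-1R protein and peptide substrate were preincubated 30 min at RT with compound. Phosphorylated and non-phosphorylated fluorescent peptides were separated by mobility shift, and the read-out is the conversion ratio.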

INSR = molecular target: T2, INSR (Homo sapiens, UniProt P06213); experiment: INSR inhibition assay (Caliper EZ Reader); type: biochemical; conditions: enzyme assay
T2 construct: purchased CARNA BIOSCIENCE 08-142

H1975 cells (DM) = experiment: H1975 inhibition assay (cell proliferation), Method B; type: cell-based; conditions: cellular proliferation, several runs
PC9 cells (SM) = experiment: PC-9 growth inhibition assay (cell proliferation), Method B; type: cell-based, human; conditions: cellular proliferation, several runs
[1] = system: p-EGFR in A431 cells (wild type EGFR, EGF stimulated); experiment: Wild type EGFR A431 autophosphorylation inhibition assay (ELISA); type: cell-based, human; conditions: 2 h treatment, EGF stimulation 10 min
Experimental: (§1) Cellular EGFR Autophosphorylation Assays.
Wild Type EGFR A431 Autophosphorylation Inhibition Assay (ELISA).
After 2 hour treatment with test compounds, add 4.5 μL of EGF (1 μg/mL) into each well and stimulate for 10 min. The rest of the procedure was processed in the same manner as described above for H1975 cells.

[2] = system: p-EGFR in PC9 cells (Exon 19 deletion EGFR); experiment: Exon19 deletion EGFR (activating single mutant) PC-9 cellular autophosphorylation assay; type: cell-based, human; conditions: 2 h treatment, ELISA
Experimental: as §1
The human lung cell line PC9 (Exon 19 deletion EGFR) is obtained from the American type Culture Collection. […] Cells are grown in a humidified incubator at 37° C. with 5% CO2, Assays to measure cellular phosphorylation of endogenous p-EGFR in cell Iysates are carried out according to the protocol described in the R&D Systems DuoSet IC Human Phospho-EGF R ELISA (R&D Systems catalogue number #DYCI095). 40 μL of cells are seeded (10000 cells/well) in growth medium in Corning black, clear-bottomed 384-well plates and incubated at 37° C., with 5%0/CO2 overnight. […] Plates are incubated for a further 2 h, then following aspiration of medium, 40 μL×lysis buffer is added to each well. Greiner black high bind 384 well plates are coated with capture antibody and then blocked with 3% BSA. Following removal of block, 15 μL of lysate are transferred to the Greiner black high bind 384 well plates and incubated for 2 hours. Following aspiration and washing of the plates with PBS, 20 μL of detection antibody are added and incubated for 2 hours. […] The data obtained with each compound are exported into a suitable software package (such as Origin) to perform curve fitting analysis.

[3] = system: p-EGFR in H1975 cells (L858R/T790M double mutant EGFR)
Experimental: H1975 cells were cryopreserved in liquid nitrogen. […] Remove the vial from liquid nitrogen and thaw rapidly by placing at 37° C. in a water bath with gentle agitation for 1-2 minutes and then decontaminated by wiping with 70% ethanol before opening in a Class II biological safety cabinet. Transfer the vial contents drop-wise into 10 mL of cell culture medium in a sterile 15 mL conical tube. Then centrifuged the tube at 200× g for 5 minutes and aspirate the supernatant. Re-suspend the cell pellet with 1 mL of fresh cell culture medium and transfer it in to the T75 flask containing cell culture medium.
To passage H1975 cells, firstly, the adherent cells were rinsed with Trypsin/EDTA. Then add Trypsin/EDTA (3 mL for a T75 flask) into the flask and swirl to ensure the cells coated with trypsin evenly. Then incubate the flasks at 37° C. until the cells detach. Add equal volume of cell culture medium to stop the reaction. Collect the detached cells and centrifuged at 200× g for 5 minutes followed by re-suspended in fresh culture medium. Then, the cells were transferred into a new T75 flask containing cell culture medium. Cells were sub-cultured three times per week at a ratio of 1:4 in culture medium.
Harvest cells from flask into cell culture medium and the cell numbers counted using Automated Cell Counter (Thermo Fisher Scientific, Countess™). Dilute the cells into 250,000 cells/mL with culture medium and add 40 μL of cell suspension into each well of 384-well cell culture plate as designated. The final concentration was 10,000 cells/well. The plates were covered with lid and placed in 37° C. 5% CO2 incubator overnight for cell attachment.
On the second day, test compounds were dissolved in DMSO at 10 mM. […] The same volume of DMSO was adopted as high control.
Place the plate back to 37° C. 5% CO2 incubator for 2 hours. Replace the medium of each well with ice-cold HBSS. Then remove the HBSS, add 30 μL cell lysis buffer into each well and shake the plates for 30 mins on a plate shaker. Centrifuge for 5 min at 1,000 rpm to remove bubbles and transfer 25 uL of the lysate supernatant for p-EGFR assay by using a commercial ELISA kit (R&D, DYC1095B-5).
For estimation of IC50, the absorption readout are transformed to % relative activity by applying the following equation
[formula] The IC50 was then calculated by fitting in XLFit (IDBS, Guildford, Surrey) to a four parameters logistic curve.

A431 cells (WT) = experiment: A431 inhibition assay (cell proliferation), Method B; type: cell-based, human; conditions: cellular proliferation, several runs
Experimental: Cell Proliferation Assays—Method B
A431 Inhibition Assay, (Cell Proliferation).
The rest procedure was conducted in the same manner as described above for H1975 cells.

[4] = Homo sapiens, A-431, cellular EGFR autophosphorylation
[5] = Homo sapiens, NCI-H1975, 2 h, read-out: H1975 IC50 (nM), cellular EGFR autophosphorylation, 2 h treatment, ELISA

T2 sequence (P06213 989-1382 limits assumed): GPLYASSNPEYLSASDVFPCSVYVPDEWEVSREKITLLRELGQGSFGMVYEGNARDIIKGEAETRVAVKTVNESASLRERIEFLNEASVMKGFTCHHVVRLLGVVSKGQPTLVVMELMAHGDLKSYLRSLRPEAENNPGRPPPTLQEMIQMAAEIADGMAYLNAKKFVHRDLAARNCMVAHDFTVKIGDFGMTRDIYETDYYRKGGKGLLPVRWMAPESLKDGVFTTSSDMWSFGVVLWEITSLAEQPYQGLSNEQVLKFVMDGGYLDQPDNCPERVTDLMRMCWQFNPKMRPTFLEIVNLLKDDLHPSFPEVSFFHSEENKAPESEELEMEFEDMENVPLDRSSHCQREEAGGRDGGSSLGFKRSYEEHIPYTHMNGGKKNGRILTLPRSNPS
T1 sequence (P08069 959-1367 limits assumed): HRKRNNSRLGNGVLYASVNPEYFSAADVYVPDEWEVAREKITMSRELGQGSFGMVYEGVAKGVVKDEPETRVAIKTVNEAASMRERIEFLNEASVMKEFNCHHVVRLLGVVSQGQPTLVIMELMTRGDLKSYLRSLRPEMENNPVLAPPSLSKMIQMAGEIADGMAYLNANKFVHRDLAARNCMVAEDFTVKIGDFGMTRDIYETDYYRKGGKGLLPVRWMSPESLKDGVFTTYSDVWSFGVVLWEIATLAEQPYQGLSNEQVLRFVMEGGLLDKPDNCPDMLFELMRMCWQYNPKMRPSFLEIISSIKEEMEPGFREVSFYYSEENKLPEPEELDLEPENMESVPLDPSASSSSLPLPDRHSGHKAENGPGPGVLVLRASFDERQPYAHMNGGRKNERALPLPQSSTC

Row | Structure (SMILES) | IC50 (IGF-1R) | IC50 (INSR) | IC50 (H1975 cells (DM); Homo sapiens, NCI-H1975, 72 h) | IC50 (H1975 cells (DM); 72 h) | IC50 (PC9 cells (SM); Homo sapiens, PC-9, 72 h) | IC50 (PC9 cells (SM); 72 h) | IC50 [1, 4] | IC50 ([2]; Homo sapiens, PC-9, 2 h) | IC50 [3, 5] | IC50 (A431 cells (WT); Homo sapiens, A-431, 72 h) | other results
1 | C=CC(=O)Nc1cc(Nc2nccc(-n3nc(NC)c4ccccc43)n2)c(OC)cc1N(C)CCN(C)C [Example 21, N-(2-((2-(Dimethylamino)ethyl)(methyl)amino)-4-methoxy-5-(4-(3-(methylamino)-1H-indazol-1-yl)pyrimidin-2-ylamino)phenyl) acrylamide] | 180 nM | 134 nM | 2.37 nM | 2.01 nM and 2.9 nM | 2.54 nM | 2.33 nM and 4.49 nM |  |  |  |  | F (Mouse in vivo PK study): 27.2%; clearance (Mouse in vivo PK study): 163 mL/min/kg; half-life (Mouse in vivo PK study): 43.8 min; AUC (Mouse in vivo PK study): 282 ng·h/mL; Cmax (Mouse in vivo PK study): 86 ng/mL
2 | C=CC(=O)Nc1cc(Nc2nccc(-c3cnc(NC)c(C(C)=O)c3)n2)c(OC)cc1N(C)CCN(C)C [Example 27, N-(5-((4-(5-Acetyl-6-(methylamino)pyridin-3-yl)pyrimidin-2-yl)amino)-2-((2-(dimethylamino)ethyl)(methyl)amino)-4-methoxyphenyl) acrylamide] | 4820 nM | 13200 nM | 9.92 nM |  | 13.4 nM |  | 200 nM | 17.8 nM | 6.78 nM | 1620 nM | 
3 | C=CC(=O)Nc1cc(Nc2nccc(-n3cc(C(C)=O)c4ccccc43)n2)c(OC)cc1N(C)CCN(C)C [Example 31, N-(5-((4-(3-Acetyl-1H-indol-1-yl)pyrimidin-2-yl)amino)-2-((2-(dimethylamino)ethyl)(methyl)amino)-4-methoxyphenyl) acrylamide] | 765 nM | 814 nM | 13.9 nM | 11.6 nM | 8.54 nM | 8.39 nM | 161 nM | 13.7 nM | 7.64 nM | 1070 nM | IC50 (A431 cells (WT); 72 h): 942 nM
4 | C=CC(=O)Nc1cc(Nc2nccc(-n3nc(NCC)c4ccccc43)n2)c(OC)cc1N(C)CCN(C)C [Example 41] | 1420 nM | 1270 nM | 9.23 nM |  | 7.52 nM |  | 137 nM | 6.26 nM | 11.9 nM | 295 nM | 
5 | C=CC(=O)Nc1cc(Nc2nccc(-n3nc(C(C)(C)O)c4ccccc43)n2)c(OC)cc1N(C)CCN(C)C [Example 45] | 1270 nM | 1020 nM | 2.61 nM |  | 4.4 nM |  | 76.2 nM | 10.6 nM | 3.83 nM | 461 nM | 
6 | C=CC(=O)Nc1cc(Nc2nccc(-n3nc(N(C)C)c4ncccc43)n2)c(OC)cc1N(C)CCN(C)C [Example 55, N-(5-(4-(3-(Dimethylamino)-1H-pyrazolo[4,3-b]pyridin-1-yl)pyrimidin-2-ylamino)-2-(N-(2-(dimethylamino)ethyl)-N-methylamino)-4-methoxyphenyl) acrylamide] | 1300 nM | 1200 nM | 3.93 nM |  | 9.09 nM |  | 106 nM | 15.5 nM | 4.07 nM | 2800 nM | 
7 | C=CC(=O)Nc1cc(Nc2nccc(-n3nc(NC)c4ncccc43)n2)c(OC)cc1N(C)CCN(C)C [Example 56, N-(5-(4-(3-(Methylamino)-1H-pyrazolo[4,3-b]pyridin-1-yl)pyrimidin-2-ylamino)-2-(N-(2-(dimethylamino)ethyl)-N-methylamino)-4-methoxyphenyl) acrylamide] | 637 nM | 433 nM | 2.77 nM |  | 1.66 nM |  | 79.9 nM | 4.04 nM | 6.28 nM | 511 nM | 
8 | C=CC(=O)N[C@@H]1CN(c2nc(Nc3cn(C)nc3OC)c3ncn(C)c3n2)C[C@H]1F [PF-06747775] |  |  |  | 27.8 nM |  | 7.1 nM |  |  |  |  | IC50 ([1]; cellular EGFR autophosphorylation): 78.2 nM; IC50 [2]: 7.49 nM; IC50 ([3]; read-out: H1975 IC50, cellular EGFR autophosphorylation, 2 h treatment, ELISA): 8 nM; IC50 (A431 cells (WT); 72 h): 657 nM

The next lines start with results.

Row | IC50 (IGF-1R) | IC50 (INSR) | IC50 (H1975 cells (DM); Homo sapiens, NCI-H1975, 72 h) | IC50 (H1975 cells (DM); 72 h) | IC50 (PC9 cells (SM); Homo sapiens, PC-9, 72 h) | IC50 (PC9 cells (SM); 72 h) | IC50 [1, 4] | IC50 ([2]; Homo sapiens, PC-9, 2 h) | IC50 [3, 5] | IC50 (A431 cells (WT); Homo sapiens, A-431, 72 h) | Structure (SMILES) | other results
9 | 271 nM | 325 nM | 2.46 nM | 2.63 nM | 3.82 nM | 3.38 nM | 26.1 nM | 1.37 nM | 1.15 nM |  | C=CC(=O)Nc1cc(Nc2nccc(-c3c[nH]c4c(OC)nccc34)n2)c(OC)cc1N(C)CCN(C)C [Example 23, N-(2-((2-(Dimethylamino)ethyl)(methyl)amino)-4-methoxy-5-((4-(7-methoxy-1H-pyrrolo[2,3-c]pyridin-3-yl)pyrimidin-2-yl)amino)phenyl) acrylamide] | 
10 | 470 nM | 514 nM | 4.62 nM |  | 7.23 nM |  | 400 nM | 7.14 nM | 2.19 nM | 1770 nM | C=CC(=O)Nc1cc(Nc2nccc(-c3cc(C(N)=O)cc4c3ccn4C)n2)c(OC)cc1N(C)CCN(C)C [Example 34, 4-(2-((5-Acrylamido-4-((2-(dimethylamino)ethyl)(methyl)amino)-2-methoxyphenyl)amino)pyrimidin-4-yl)-1N-methyl-1H-indole-6-carboxamide hydrochloride] | F (Mouse in vivo PK study): 10.3%; clearance (Mouse in vivo PK study): 110 mL/min/kg; half-life (Mouse in vivo PK study): 66.6 min; AUC (Mouse in vivo PK study): 165 ng·h/mL; Cmax (Mouse in vivo PK study): 58 ng/mL; IC50 (H1975 cells (DM); 72 h, hydrochloride): 3.23 nM; IC50 (PC9 cells (SM); 72 h, hydrochloride): 10.9 nM; IC50 (A431 cells (WT); 72 h, hydrochloride): 928 nM
11 | 207 nM | 290 nM | 5.1 nM |  | 3.63 nM |  | 134 nM | 14 nM | 8.5 nM | 267 nM | C=CC(=O)Nc1cc(Nc2nccc(-c3cnc(OC)c4c3ccn4C)n2)c(OC)cc1N(C)CCN(C)C [Example 57, N-(5-(4-(7-Methoxy-1N-methyl-1H-pyrrolo[2,3-c]pyridin-4-yl)pyrimidin-2-ylamino)-2-(N-(2-(dimethylamino)ethyl)-N-methylamino)-4-methoxyphenyl) acrylamide] | 
12 | 243 nM | 403 nM | 1.05 nM |  | 2.07 nM |  | 110 nM | 4.76 nM | 1.06 nM | 506 nM | C=CC(=O)Nc1cc(Nc2nccc(-c3cc(C#N)c4[nH]cc(C)c4c3)n2)c(OC)cc1N(C)CCN(C)C [Example 67, N-(5-(4-(7-Cyano-3-methyl-1H-indol-5-yl)pyrimidin-2-ylamino)-2-((2-(dimethylamino)ethyl)(methyl)amino)-4-methoxyphenyl) acrylamide] | 
